{
  "source": "paper PMC8894159",
  "about": "“Paltusotine, a novel oral once-daily nonpeptide SST2 receptor agonist, suppresses GH and IGF-1 in healthy volunteers” (Pituitary, 2022)",
  "key": {"[1]": {"test_system": "GHRH-stimulated GH secretion", "assay": "GHRH challenge: suppression of GHRH-stimulated GH secretion, single-dose cohorts", "assay_type": "in vivo, human", "method": "To assess the ability of paltusotine to suppress GHRH-stimulated GH secretion, a GHRH challenge was performed in single-dose cohorts S1, S2, S3, S4, and S5 (oral solution) (Fig. 1). Recombinant human GHRH(1-44)-NH2 (somatorelin; Ferring Pharmaceuticals, Parsippany, NJ) 50 µg was administered intravenously 2 h after paltusotine (or placebo) on Day 1 and at approximately the same time on Day -1 (± 10 min). A blood sample for serum GH was collected at − 60 min, − 30 min, immediately before GHRH challenge, and at 15, 30, 45, 60, 90, and 120 min post-challenge. Serum GH was also assessed in the M1 cohort. Serum GH sample was collected on Day - 1, on Days 1 and 7 (pre-dose, 0.5, 1, 2, 3, 4, 6, 8, 10, 12 and 18 h post-dose), Days 2–6 (pre-dose and 12 h post-dose), and Days 8, 10 and 14 (at approximately the same time as dosing).\nSerum was isolated, stored, and analyzed for IGF-1 and GH according to the instructions from the manufacturer (IGF-1 and human GH diagnostic assay, Siemens Immulite® 1000 systems).\nThe study endpoints were effects of paltusotine on GHRH-stimulated GH and IGF-1 (pharmacodynamics), pharmacokinetics (including formulation and food effects), safety, and tolerability. For the analysis of effects paltusotine on GHRH-stimulated GH and IGF-1, the pharmacodynamic population included all randomized participants in the 1.25 mg, 2.5 mg, 5 mg, 10 mg, and 20 mg (S1, S2, S3, S4A, and S5) single-dose cohorts who received any amount of study drug and had at least one post-baseline pharmacodynamic assessment. The percent change in serum GH area under the curve (AUC) from 0 to 2 h (AUC0-2) from baseline was compared using ANOVA between each dosing cohort and all participants who received placebo. The single-dose pharmacodynamic population included 39 participants from the S1, S2, S3, S4, and S5 cohorts (paltusotine n = 29; placebo n = 10). […] For multiple-dose cohorts, only participants who received all doses were included. A change in IGF-1 levels 12 h post last dose from baseline (average of 3–4 measurements) were compared by ANOVA between each dosing cohort and all participants who received placebo. The multiple-dose pharmacodynamic population included 31 participants from the M1, M2, M3, and M4 cohorts (paltusotine n = 21; placebo n = 10)."}, "SST2": {"test_system": "SST2", "design": "method as in ref 13 = [13]; 13. Betz SF Markison S Kusnetzow AK Athanacio JD Rico-Bautista E Madan A Suppression of growth hormone and insulin-like growth factor 1 in rats after oral administration of CRN00808, a small molecule", "conditions": "cited from earlier work"}, "[2]": {"conditions": "plasma concentration-response model, 1.25-20 mg single doses"}},
  "data": [
    {"smiles": "Cl.N#Cc1cccc(-c2ccc3ncc(-c4cc(F)cc(F)c4)c(N4CCC(N)CC4)c3c2)c1O", "note": "[paltusotine, 3-[4-(4-Aminopiperidin-1-yl)-3-(3,5-difluorophenyl)quinolin-6-yl]-2-hydroxybenzonitrile hydrochloride]", "values": [
      {"measurement": "mean peak GH concentration after GHRH challenge", "setting": "[1]; 10 mg single dose, Day 1, GHRH alone on Day -1 gave 21 ng/mL", "value": 1.7, "unit": "ng/mL"},
      {"measurement": "suppression of stimulated GH AUC0-2 h", "setting": "[1]; 10 mg single dose, placebo 15%", "value": 91, "unit": "%"},
      {"measurement": "EC50", "setting": "[1]; Homo sapiens, read-out: paltusotine concentration for 50% GH suppression (EC50), plasma concentration-response model, 1.25-20 mg single doses", "value": "~7.9", "unit": "ng/mL"},
      {"measurement": "paltusotine concentration for 50% GH suppression (EC50)", "setting": "[1]; [2]", "value": 7.9, "unit": "ng/mL"},
      {"measurement": "paltusotine concentration for 80% GH suppression (EC80)", "setting": "[1]; [2]", "value": "~29", "unit": "ng/mL"},
      {"measurement": "selectivity for SST2 over other somatostatin receptor subtypes", "setting": "SST2", "value": "> 4000", "unit": "fold"},
      {"measurement": "EC50", "setting": "SST2; read-out: SST2 agonist EC50", "value": 0.25, "unit": "nM"}
    ]}
  ]
}
